Source: patent publication US9216968B2, “Heterocyclic derivative and pharmaceutical drug” (NIPPON SHINYAKU CO., LTD., priority 2011, dated 2015)
Structures can show the parent of a compound that is named as a salt.

Tests used:
[1] = molecular target: human mPGES-1 (Homo sapiens (Human), UniProt O14684); assay: mPGES-1 inhibiting activity (microsome fractions, PGE2 by HTRF); format: biochemical; settings: microsomes from CHO-K1 cells transfected with human mPGES-1; PGH2 1 μM, 4° C., 60 seconds; read-out: mPGES-1 Inhibition IC50
human mPGES-1, sequence (O14684 whole entry): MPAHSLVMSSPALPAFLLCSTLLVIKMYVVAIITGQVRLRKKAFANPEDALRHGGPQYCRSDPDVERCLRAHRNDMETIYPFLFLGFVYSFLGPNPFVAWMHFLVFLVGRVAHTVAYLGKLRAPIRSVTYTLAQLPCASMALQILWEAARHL
Procedure: mPGES-1 microsome fractions were prepared from CHO-K1 cells transiently transfected with plasmid encoding the human mPGES-1cDNA. Microsomes were diluted with potassium phosphate buffer containing reduced glutathione (pH7.4), and DMSO containing test compound or DMSO alone was added (such that DMSO final concentration would be 1% in each) and incubated at 4° C. for 20 minutes. Then, the enzymatic reactions were initiated by the addition of PGH2 substrate (final concentration 1 μM) and incubated at 4° C. for 60 seconds. The reaction was terminated by the addition of a citrate solution (final citrate concentration 50 mM) containing ferric chloride (final concentration 1 mg/mL). PGE2 production in the enzyme reaction aliquot was measured using HTRF kit (Cisbio International, catalogue #62P2APEC). The solution free of test compound was used as positive control, and the solution free of test compound and microsome sample was used as negative control. 100% activity was defined as PGE2 production in the positive control minus PGE2 production in negative control. IC50 value was calculated by standard method.

[2] = system: A549 cells; assay: Inhibition of PGE2 production in A549 cell (IL-1β stimulated); format: cell-based, human; settings: Homo sapiens, A549, 24 h, IL-1β 5 ng/well, PGE2 in culture medium
Procedure: Human A549 cells were seeded onto a 96-well plate at 2×10^4 cells/100 μL per well and allowed to incubate overnight. After removing the culture medium and washing with phosphate buffered saline, the culture medium was replaced by RPMI culture medium with 3% FBS containing a DMSO solution containing test compound or DMSO alone (such that DMSO final concentration would be […] in each). After incubation for 60 minutes, IL-1β (5 ng/well) was added and incubated at 37° C. for 24 hours. Then, PGE2 in the culture medium was measured using HTRF kit (Cisbio International, catalogue #62P2APEC), and PGF2α in the culture medium was measured using EIA kit (Cayman Chemical Company, catalogue #516011). The solution free of test compound was used as positive control, and the solution free of test compound and IL-1β was used as negative control. 100% activity was defined as PGE2 and PGF2α production in the positive control minus PGE2 and PGF2α production in the negative control. IC50 value was calculated by standard method.

Row | IC50 [1] | IC50 [2] | Structure (SMILES)
1 | 52.5 nM | 145 nM | COCc1nc2c(C(=O)Nc3cccc(C#N)c3C)cc(NC(=O)c3ccccc3C(F)(F)F)cc2[nH]1 [Example 41, N-(3-Cyano-2-methylphenyl)-2-(methoxymethyl)-6-({[2-(trifluoromethyl)phenyl]carbonyl}amino)-1H-benzimidazole-4-carboxamide]
2 | 28.5 nM | 1860 nM | COCc1nc2c(C(=O)NCc3ncccc3C(F)(F)F)cc(NC(=O)c3ccccc3C(F)(F)F)cc2[nH]1 [Example 42, 2-(Methoxymethyl)-6-({[2-(trifluoromethyl)phenyl]carbonyl}amino)-N-{[3-(trifluoromethyl)pyridin-2-yl]methyl}-1H-benzimidazole-4-carboxamide dihydrochloride]
3 | 70.7 nM | 438 nM | COCc1nc2c(C(=O)Nc3c(C)cccc3Cl)cc(NC(=O)c3ccccc3C(F)(F)F)cc2[nH]1 [Example 43, N-(2-Chloro-6-methylphenyl)-2-(methoxymethyl)-6-({[2-(trifluoromethyl)phenyl]carbonyl}amino)-1H-benzimidazole-4-carboxamide hydrochloride]
4 | 4.1 nM | 1100 nM | Cc1c(Cl)cccc1NC(=O)c1cc(NC(=O)c2ccccc2C(F)(F)F)cc2[nH]c(CC(N)=O)nc12 [Example 44, 2-(2-Amino-2-oxoethyl)-N-(3-chloro-2-methylphenyl)-6-({[2-(trifluoromethyl)phenyl]carbonyl}amino)-1H-benzimidazole-4-carboxamide hydrochloride]
5 | 4.9 nM | 2080 nM | NC(=O)Cc1nc2c(C(=O)NCc3ccccc3C(F)(F)F)cc(NC(=O)c3ccccc3C(F)(F)F)cc2[nH]1 [Example 45, 2-(2-Amino-2-oxoethyl)-N-[2-(trifluoromethyl)benzyl]-6-({[2-(trifluoromethyl)phenyl]carbonyl}amino)-1H-benzimidazole-4-carboxamide hydrochloride]
6 | 26 nM | 231 nM | Cc1c(Cl)cccc1NC(=O)c1cc(NC(=O)c2ccccc2C(F)(F)F)cc2c1ncn2C [Example 46, N-(3-Chloro-2-methylphenyl)-1-methyl-6-({[2-(trifluoromethyl)phenyl]carbonyl}amino)-1H-benzimidazole-4-carboxamide]
7 | 49.9 nM | 146 nM | Cn1cnc2c(C(=O)NCc3ccccc3C(F)(F)F)cc(NC(=O)c3ccccc3C(F)(F)F)cc21 [Example 48, 1-Methyl-N-[2-(trifluoromethyl)benzyl]-6-({[2-(trifluoromethyl)phenyl]carbonyl}amino)-1H-benzimidazole-4-carboxamide]
8 | 100 nM | 375 nM | CCn1cnc2c(C(=O)Nc3cccc(Cl)c3C)cc(NC(=O)c3ccccc3C(F)(F)F)cc21 [Example 49, N-(3-Chloro-2-methylphenyl)-1-ethyl-6-({[2-(trifluoromethyl)phenyl]carbonyl}amino)-1H-benzimidazole-4-carboxamide]
9 | 140 nM | 810 nM | CCn1cnc2c(C(=O)NC3CCCCC3)cc(NC(=O)c3ccccc3C(F)(F)F)cc21 [Example 50, N-Cyclohexyl-1-ethyl-6-({[2-(trifluoromethyl)phenyl]carbonyl}amino)-1H-benzimidazole-4-carboxamide]
10 | 120 nM | 330 nM | CCn1cnc2c(C(=O)NCc3ccccc3C(F)(F)F)cc(NC(=O)c3ccccc3C(F)(F)F)cc21 [Example 51, 1-Ethyl-N-[2-(trifluoromethyl)benzyl]-6-({[2-(trifluoromethyl)phenyl]carbonyl}amino)-1H-benzimidazole-4-carboxamide]
11 | 40.2 nM | 281 nM | Cc1nc2c(C(=O)Nc3cccc(Cl)c3C)cc(NC(=O)c3ccccc3C(F)(F)F)cc2o1 [Example 52, N-(3-Chloro-2-methylphenyl)-2-methyl-6-({[2-(trifluoromethyl)phenyl]carbonyl}amino)-1,3-benzoxazole-4-carboxamide]

The next lines start with the compound.

Row | Structure (SMILES) | IC50 [1] | IC50 [2]
12 | COCc1nc2c(C(=O)Nc3ccc(C(F)(F)F)cc3)cc(NC(=O)c3ccccc3C(F)(F)F)cc2[nH]1 [Example 28, 2-(Methoxymethyl)-N-[4-(trifluoromethyl)phenyl]-6-({[2-(trifluoromethyl)phenyl]carbonyl}amino)-1H-benzimidazole-4-carboxamide hydrochloride] | 3.3 nM | 114 nM
13 | COCc1nc2c(C(=O)Nc3ccc(C)cc3C)cc(NC(=O)c3ccccc3C(F)(F)F)cc2[nH]1 [Example 29, N-(2,4-Dimethylphenyl)-2-(methoxymethyl)-6-({[2-(trifluoromethyl)phenyl]carbonyl}amino)-1H-benzimidazole-4-carboxamide hydrochloride] | 3.5 nM | 85.5 nM
14 | COCc1nc2c(C(=O)Nc3ccc(C)cc3Cl)cc(NC(=O)c3ccccc3C(F)(F)F)cc2[nH]1 [Example 30, N-(2-Chloro-4-methylphenyl)-2-(methoxymethyl)-6-({[2-(trifluoromethyl)phenyl]carbonyl}amino)-1H-benzimidazole-4-carboxamide hydrochloride] | 1.8 nM | 210 nM
15 | COCc1nc2c(C(=O)Nc3ccc(C)c(C)c3)cc(NC(=O)c3ccccc3C(F)(F)F)cc2[nH]1 [Example 31, N-(3,4-Dimethylphenyl)-2-(methoxymethyl)-6-({[2-(trifluoromethyl)phenyl]carbonyl}amino)-1H-benzimidazole-4-carboxamide hydrochloride] | 4.1 nM | 69 nM
16 | COCc1nc2c(C(=O)Nc3ccc(C)c(Cl)c3)cc(NC(=O)c3ccccc3C(F)(F)F)cc2[nH]1 [Example 32, N-(3-Chloro-4-methylphenyl)-2-(methoxymethyl)-6-({[2-(trifluoromethyl)phenyl]carbonyl}amino)-1H-benzimidazole-4-carboxamide hydrochloride] | 5.2 nM | 71.7 nM
17 | COCc1nc2c(C(=O)Nc3ccc4c(c3)CCC4)cc(NC(=O)c3ccccc3C(F)(F)F)cc2[nH]1 [Example 33, N-(2,3-Dihydro-1H-inden-5-yl)-2-(methoxymethyl)-6-({[2-(trifluoromethyl)phenyl]carbonyl}amino)-1H-benzimidazole-4-carboxamide hydrochloride] | 3 nM | 33.6 nM
18 | COCc1nc2c(C(=O)Nc3cccc4c3CCCC4)cc(NC(=O)c3ccccc3C(F)(F)F)cc2[nH]1 [Example 34, 2-(Methoxymethyl)-N-(5,6,7,8-tetrahydronaphthalen-1-yl)-6-({[2-(trifluoromethyl)phenyl]carbonyl}amino)-1H-benzimidazole-4-carboxamide hydrochloride] | 4.9 nM | 27.6 nM
19 | COCc1nc2c(C(=O)Nc3ccccc3F)cc(NC(=O)c3ccccc3C(F)(F)F)cc2[nH]1 [Example 35, N-(2-Fluorophenyl)-2-(methoxymethyl)-6-({[2-(trifluoromethyl)phenyl]carbonyl}amino)-1H-benzimidazole-4-carboxamide] | 20.3 nM | 205 nM
20 | COCc1nc2c(C(=O)Nc3ccccc3OC)cc(NC(=O)c3ccccc3C(F)(F)F)cc2[nH]1 [Example 36, 2-(Methoxymethyl)-N-(2-methoxyphenyl)-6-({[2-(trifluoromethyl)phenyl]carbonyl}amino)-1H-benzimidazole-4-carboxamide] | 147 nM | 234 nM
21 | COCc1nc2c(C(=O)Nc3ccc(OC)cc3)cc(NC(=O)c3ccccc3C(F)(F)F)cc2[nH]1 [Example 37, 2-(Methoxymethyl)-N-(4-methoxyphenyl)-6-({[2-(trifluoromethyl)phenyl]carbonyl}amino)-1H-benzimidazole-4-carboxamide] | 23.3 nM | 265 nM
22 | COCc1nc2c(C(=O)Nc3cccc(Br)c3C)cc(NC(=O)c3ccccc3C(F)(F)F)cc2[nH]1 [Example 38, N-(3-Bromo-2-methylphenyl)-2-(methoxymethyl)-6-({[2-(trifluoromethyl)phenyl]carbonyl}amino)-1H-benzimidazole-4-carboxamide] | 6.6 nM | 17.4 nM
23 | COCc1nc2c(C(=O)NCc3cccc(Cl)c3C)cc(NC(=O)c3ccccc3C(F)(F)F)cc2[nH]1 [Example 39, N-(3-Chloro-2-methylbenzyl)-2-(methoxymethyl)-6-({[2-(trifluoromethyl)phenyl]carbonyl}amino)-1H-benzimidazole-4-carboxamide hydrochloride] | 10.4 nM | 237 nM
24 | COCc1nc2c(C(=O)Nc3c(F)cccc3F)cc(NC(=O)c3ccccc3C(F)(F)F)cc2[nH]1 [Example 40, N-(2,6-Difluorophenyl)-2-(methoxymethyl)-6-({[2-(trifluoromethyl)phenyl]carbonyl}amino)-1H-benzimidazole-4-carboxamide] | 194 nM | 300 nM
